Results published in ChEMBL document CHEMBL4706524, “Discovery of sulfonyl hydrazone derivative as a new selective PDE4A and PDE4D inhibitor by lead-optimization approach on the prototype LASSBio-448: In vitro and in vivo preclinical studies” (Eur J Med Chem, 2020).

Columns and labels:
[1] = molecular target: T1, 3',5'-cyclic-AMP phosphodiesterase 4D (Homo sapiens, UniProt Q08499); test: Inhibition of human recombinant PDE4D3 using FAM-cAMP as substrate at 10 uM measured after 1 hr by IMAP TR-FRET assay
T1 sequence (Q08499 whole entry): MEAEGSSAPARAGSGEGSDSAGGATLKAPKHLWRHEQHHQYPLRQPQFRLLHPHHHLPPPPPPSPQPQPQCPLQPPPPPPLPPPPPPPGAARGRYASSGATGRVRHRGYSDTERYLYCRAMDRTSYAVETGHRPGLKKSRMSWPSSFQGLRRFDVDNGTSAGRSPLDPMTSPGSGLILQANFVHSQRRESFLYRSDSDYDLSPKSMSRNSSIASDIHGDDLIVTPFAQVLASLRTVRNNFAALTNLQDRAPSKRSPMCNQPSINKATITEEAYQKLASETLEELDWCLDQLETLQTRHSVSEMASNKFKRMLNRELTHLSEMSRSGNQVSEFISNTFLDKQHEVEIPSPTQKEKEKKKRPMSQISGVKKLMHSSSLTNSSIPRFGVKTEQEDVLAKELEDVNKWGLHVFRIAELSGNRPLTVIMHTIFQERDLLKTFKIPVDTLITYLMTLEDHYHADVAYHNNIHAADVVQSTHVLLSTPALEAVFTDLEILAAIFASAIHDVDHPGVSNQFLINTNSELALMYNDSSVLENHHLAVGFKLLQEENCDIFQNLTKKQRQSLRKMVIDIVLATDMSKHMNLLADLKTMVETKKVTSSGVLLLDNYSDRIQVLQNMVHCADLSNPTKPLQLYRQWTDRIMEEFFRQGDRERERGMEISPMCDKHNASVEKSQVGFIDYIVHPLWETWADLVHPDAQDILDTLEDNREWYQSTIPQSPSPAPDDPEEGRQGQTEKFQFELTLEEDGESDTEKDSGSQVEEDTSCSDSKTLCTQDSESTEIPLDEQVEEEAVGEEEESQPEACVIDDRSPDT

[2] = Chemical stability of the compound in KCl/HCl buffer at pH 2.0 measured upto 120 mins by HPLC-DAD analysis; details: pH 2, 2 h
[3] = Chemical stability of the compound in phosphate buffer at pH 7.4 measured upto 120 mins by HPLC-DAD analysis; format: physicochemical; details: pH 7.4, 2 h
[4] = molecular target: 3',5'-cyclic-AMP phosphodiesterase 4B (Homo sapiens, UniProt Q07343); test: Inhibition of human recombinant PDE4B1 using FAM-cAMP as substrate at 10 uM measured after 1 hr by IMAP TR-FRET assay
3',5'-cyclic-AMP phosphodiesterase 4B, sequence (Q07343 whole entry): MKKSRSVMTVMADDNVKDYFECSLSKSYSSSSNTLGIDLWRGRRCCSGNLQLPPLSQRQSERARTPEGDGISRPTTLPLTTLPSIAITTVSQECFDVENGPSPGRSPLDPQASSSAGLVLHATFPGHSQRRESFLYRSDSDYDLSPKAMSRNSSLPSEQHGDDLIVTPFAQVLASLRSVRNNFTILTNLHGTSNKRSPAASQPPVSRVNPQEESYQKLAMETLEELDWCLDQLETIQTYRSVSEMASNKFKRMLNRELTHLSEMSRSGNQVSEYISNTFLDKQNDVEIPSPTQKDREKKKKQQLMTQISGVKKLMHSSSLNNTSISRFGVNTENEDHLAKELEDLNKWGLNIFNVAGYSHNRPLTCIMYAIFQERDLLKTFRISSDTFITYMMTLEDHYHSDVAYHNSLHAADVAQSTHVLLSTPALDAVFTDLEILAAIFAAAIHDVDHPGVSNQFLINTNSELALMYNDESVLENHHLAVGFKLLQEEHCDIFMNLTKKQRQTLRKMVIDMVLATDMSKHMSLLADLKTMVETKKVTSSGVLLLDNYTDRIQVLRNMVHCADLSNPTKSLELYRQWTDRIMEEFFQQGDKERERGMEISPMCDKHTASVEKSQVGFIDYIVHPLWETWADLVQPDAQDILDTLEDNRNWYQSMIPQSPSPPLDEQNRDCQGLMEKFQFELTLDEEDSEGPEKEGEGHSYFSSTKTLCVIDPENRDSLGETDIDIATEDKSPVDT

[5] = molecular target: 3',5'-cyclic-AMP phosphodiesterase 4C (Homo sapiens, UniProt Q08493); test: Inhibition of human recombinant PDE4C using FAM-cAMP as substrate at 10 uM measured after 1 hr by IMAP TR-FRET assay
3',5'-cyclic-AMP phosphodiesterase 4C, sequence (Q08493 whole entry): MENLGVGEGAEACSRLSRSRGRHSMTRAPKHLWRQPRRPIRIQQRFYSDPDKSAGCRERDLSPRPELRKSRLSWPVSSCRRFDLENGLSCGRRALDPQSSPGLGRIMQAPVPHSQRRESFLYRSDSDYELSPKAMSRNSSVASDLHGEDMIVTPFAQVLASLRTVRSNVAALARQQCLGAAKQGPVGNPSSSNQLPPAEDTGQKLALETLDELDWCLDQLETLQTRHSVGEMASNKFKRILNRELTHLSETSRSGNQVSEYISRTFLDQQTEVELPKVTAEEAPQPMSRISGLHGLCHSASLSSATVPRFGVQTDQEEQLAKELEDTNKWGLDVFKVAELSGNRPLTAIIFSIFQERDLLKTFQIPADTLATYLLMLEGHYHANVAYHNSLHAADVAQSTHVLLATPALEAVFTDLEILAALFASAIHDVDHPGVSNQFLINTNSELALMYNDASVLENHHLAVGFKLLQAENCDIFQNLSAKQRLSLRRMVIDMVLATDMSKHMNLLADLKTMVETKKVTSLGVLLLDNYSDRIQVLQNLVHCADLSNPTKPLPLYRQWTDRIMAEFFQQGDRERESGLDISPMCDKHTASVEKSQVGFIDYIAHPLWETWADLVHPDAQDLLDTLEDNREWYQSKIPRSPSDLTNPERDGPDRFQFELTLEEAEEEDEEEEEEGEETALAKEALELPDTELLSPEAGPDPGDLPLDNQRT

Homo sapiens [6] = species: Homo sapiens; test: Inhibition of human recombinant PDE4A1A using FAM-cAMP as substrate at 10 uM measured after 1 hr by IMAP TR-FRET assay
[7] = molecular target: T1, 3',5'-cyclic-AMP phosphodiesterase 4D; test: Inhibition of human recombinant PDE4D3 using FAM-cAMP as substrate measured after 1 hr by IMAP TR-FRET assay
[8] = molecular target: T1, 3',5'-cyclic-AMP phosphodiesterase 4D; test: Inhibition of human recombinant PDE4D3 using FAM-cAMP as substrate measured after 1 hr by IMAP TR-FRET assay relative to control
Homo sapiens [9] = species: Homo sapiens; test: Inhibition of human recombinant PDE4A1A using FAM-cAMP as substrate measured after 1 hr by IMAP TR-FRET assay relative to control
Mus musculus [10] = test: Antiinflammatory activity against A/J mouse assessed as decrease in LPS-induced TNFalpha production in lungs at 6.25 umol/kg, po treated via gavage for 1 hr before LPS stimulation and measured after 24 hrs by ELISA relative to control; format: functional; details: 25 h
Mus musculus [11] = test: Antiinflammatory activity against A/J mouse assessed as decrease in LPS-induced airway hyperreactivity at 6.25 umol/kg, po treated via gavage for 1 hr before LPS stimulation measured after 24 hrs by whole body plethysmography relative to control; format: functional; details: 25 h
[12] = Inhibition of human recombinant PDE4A1A using FAM-cAMP as substrate measured after 1 hr by IMAP TR-FRET assay
Mus musculus [13] = test: Antiinflammatory activity against A/J mouse assessed as decrease in LPS-induced TNFalpha production in lungs at 25 umol/kg, po treated via gavage for 1 hr before LPS stimulation and measured after 24 hrs by ELISA relative to control; format: functional; details: 25 h
Mus musculus [14] = test: Antiinflammatory activity against A/J mouse assessed as decrease in LPS-induced airway hyperreactivity at 25 umol/kg, po treated via gavage for 1 hr before LPS stimulation measured after 24 hrs by whole body plethysmography relative to control; format: functional; details: 25 h
[15] = pampa, 8 h
in vitro [16] = details: PAMPA
in vitro [17] = details: PAMPA; remark: listed apart in the source
Description: Permeability of the compound incubated for 165 mins by PAMPA-BBB assay

Trachea [18] = test: […] activity in non-sensitized guinea pig-derived trachea assessed as decrease in CCh-induced tracheal tonic contraction in absence of functional epithelium treated with compound after contraction stabilised; format: tissue-based; details: Cavia porcellus
Trachea [19] = test: […] activity in OVA-sensitized guinea pig-derived trachea assessed as decrease in CCh-induced tracheal tonic contraction in absence of functional epithelium treated with compound after contraction stabilised; format: tissue-based; details: Cavia porcellus
Trachea [20] = test: […] activity in OVA-sensitized guinea pig-derived trachea assessed as decrease in CCh-induced tracheal tonic contraction in presence of functional epithelium treated with compound after contraction stabilised; format: tissue-based; details: Cavia porcellus
Trachea [21] = test: […] activity in non-sensitized guinea pig-derived trachea assessed as decrease in CCh-induced tracheal tonic contraction in presence of functional epithelium; format: tissue-based; details: Cavia porcellus
in vitro [22] = details: PAMPA; remark: listed apart in the source
Description: Permeability of the compound by PAMPA-TGI assay

Row | inhibition [1] [%] | Stabilty [2] | Stabilty [3] | inhibition [4] [%] | inhibition [5] [%] | inhibition (Homo sapiens [6]) [%] | Structure (SMILES) | other results
1 | 15.9 | Unstable | Stable | < 5 | 19.5 | 8 | COc1ccc(/C=N/NS(=O)(=O)c2ccccc2C)cc1OC | 
2 | 13.6 | Stable | Stable | < 5 | 26 | 11.3 | COc1ccc(CCNS(=O)(=O)c2ccc(OC)c(OC)c2)cc1OC | 
3 | 19.7 | Unstable | Stable | < 5 | 29 | < 5 | COc1ccc(/C=N/NS(=O)(=O)c2ccc(C(F)(F)F)cc2)cc1OC | 
4 | 23.8 | Stable | Stable | < 5 | 20.7 | 11 | COc1ccc(S(=O)(=O)NCCc2ccc(OC)c(OC)c2)cc1 | 
5 | 35.6 | Stable | Stable | 33 | 23.5 | 43 | COc1ccc(S(=O)(=O)N(C)CCc2ccc(OC)c(OC)c2)cc1 | 
6 | 31.1 | Stable | Stable | 12 | 16.4 | 36.1 | COc1ccc(CCN(C)S(=O)(=O)c2ccc(OC)c(OC)c2)cc1OC | 
7 | 50.1 | Stable | Stable | 12.2 | 30.1 | 89.9 | COc1ccc(CCN(C)S(=O)(=O)c2ccc3ccccc3c2)cc1OC | IC50 [7]: 35.3 µM; Emax [8]: 63%; Emax (Homo sapiens [9]): 97%; inhibition in vivo at 6.25 µmol/kg (Mus musculus [10]): 0%; inhibition in vivo at 6.25 µmol/kg (Mus musculus [11]): 95%; IC50 [12]: 3 µM; inhibition in vivo at 25 µmol/kg (Mus musculus [13]): 58.9%; inhibition in vivo at 25 µmol/kg (Mus musculus [14]): 97%
8 |  |  |  |  |  |  | CNC(=C[N+](=O)[O-])NCCSCc1ccc(CN(C)C)o1 [RANITIDINE] | Drug absorption [15]: 13.48%
9 |  |  |  |  |  |  | O=c1ccc2ccccc2o1 [COUMARIN] | Drug absorption [15]: 99.98%; Papp at 8 h (in vitro [16]): 22.6 ×10⁻⁶ cm/s
10 | 8.8 | Unstable | Stable | < 5 | < 5 | < 5 | COc1ccc(/C=N/NS(=O)(=O)c2cc3c(cc2C)OCO3)cc1OC | 
11 | 27.6 | Stable | Stable | 26.5 | < 5 | 25.9 | COc1ccc(CCN(C)S(=O)(=O)c2ccccc2C)cc1OC | 
12 | 56.3 | Stable | Stable | 7.1 | 26.6 | 46.8 | COc1ccc(CCN(C)S(=O)(=O)c2ccc(-c3ccccc3)cc2)cc1OC | IC50 [7]: 20.8 µM; Emax [8]: 60%; Emax (Homo sapiens [9]): 65%; inhibition in vivo at 6.25 µmol/kg (Mus musculus [10]): 22.2%; inhibition in vivo at 6.25 µmol/kg (Mus musculus [11]): 95%; inhibition in vivo at 25 µmol/kg (Mus musculus [13]): 55.1%; inhibition in vivo at 25 µmol/kg (Mus musculus [14]): 80%
13 |  |  |  |  |  |  | O=C(Nc1c(Cl)cncc1Cl)c1ccc(OC(F)F)c(OCC2CC2)c1 [ROFLUMILAST] | Drug absorption [15]: 86.58%; Papp at 2.75 h (in vitro [17]): 8.05 ×10⁻⁶ cm/s; Papp at 8 h (in vitro [16]): 5.28 ×10⁻⁶ cm/s
14 | < 5 | Stable | Stable | < 5 | 21.3 | 11.8 | COc1ccc(CCNS(=O)(=O)c2cc3c(cc2C)OCO3)cc1OC | EC50 (Trachea [18]): 43.7 µM; EC50 (Trachea [19]): 25.1 µM; Papp at 2.75 h (in vitro [17]): 3.46 ×10⁻⁶ cm/s; IC50 [12]: 0.7 µM; EC50 (Trachea [20]): 24.5 µM; EC50 (Trachea [21]): 29.5 µM
15 | 12.8 | Unstable | Stable | < 5 | 43 | 31.5 | COc1ccc(S(=O)(=O)N(C)/N=C/c2ccc(OC)c(OC)c2)cc1 | 
16 | < 5 | Stable | Stable | < 5 | 19 | < 5 | COc1ccc(CCN(C)S(=O)(=O)c2ccc([N+](=O)[O-])cc2)cc1OC | 

Row | inhibition [1] [%] | Stabilty [2] | Stabilty [3] | inhibition [4] [%] | inhibition [5] [%] | inhibition (Homo sapiens [6]) [%] | Structure (SMILES) | other results
17 | 10.8 | Stable | Stable | < 5 | < 5 | 14.8 | COc1ccc(CCNS(=O)(=O)c2ccc(-c3ccccc3)cc2)cc1OC | 
18 | 26.1 | Unstable | Stable | < 5 | 39.3 | 16.2 | COc1ccc(/C=N/N(C)S(=O)(=O)c2ccccc2C)cc1OC | 
19 |  |  |  |  |  |  | COc1ccc(C2CNC(=O)C2)cc1OC1CCCC1 (configuration not stated) [ROLIPRAM] | EC50 (Trachea [18]): 0.0646 µM; EC50 (Trachea [19]): 0.0692 µM; EC50 (Trachea [20]): 0.0316 µM; EC50 (Trachea [21]): 0.0263 µM
20 |  |  |  |  |  |  | Nc1nc2c(ncn2COCCO)c(=O)[nH]1 [ACYCLOVIR] | Papp at 8 h (in vitro [16]): 0.08 ×10⁻⁶ cm/s
21 | 20.2 | Unstable | Stable | < 5 | 40.2 | 35.2 | COc1ccc(S(=O)(=O)N/N=C/c2ccc(OC)c(OC)c2)cc1 | 
22 |  |  |  |  |  |  | CC(=O)N1CCN(c2ccc(OCC3COC(Cn4ccnc4)(c4ccc(Cl)cc4Cl)O3)cc2)CC1 (configuration not stated) [KETOCONAZOLE] | Papp (in vitro [22]): 3.3 ×10⁻⁶ cm/s; Drug absorption [15]: 84.68%; Papp at 8 h (in vitro [16]): 4.93 ×10⁻⁶ cm/s
23 |  |  |  |  |  |  | CC(=O)Oc1ccccc1C(=O)O [ASPIRIN] | Papp (in vitro [22]): 3.8 ×10⁻⁶ cm/s; Drug absorption [15]: 47.36%; Papp at 8 h (in vitro [16]): 1.69 ×10⁻⁶ cm/s
24 | < 5 | Stable | Stable | 13.8 | < 5 | < 5 | COc1ccc(CCNS(=O)(=O)c2ccc([N+](=O)[O-])cc2)cc1OC | 
25 | 9.1 | Stable | Stable | < 5 | 12.1 | 30.4 | COc1ccc(CCNS(=O)(=O)c2ccc3ccccc3c2)cc1OC | 
26 | < 5 | Unstable | Stable | < 5 | 14.6 | 11.9 | COc1ccc(/C=N/NS(=O)(=O)c2ccccc2)cc1OC | 
27 |  |  |  |  |  |  | O=C(O)c1cc(/N=N/c2ccc(S(=O)(=O)Nc3ccccn3)cc2)ccc1O [SULFASALAZINE] | Papp (in vitro [22]): 0.3 ×10⁻⁶ cm/s; Papp at 8 h (in vitro [16]): 0.45 ×10⁻⁶ cm/s
28 |  |  |  |  |  |  | C[C@]12C=CC(=O)C=C1CC[C@@H]1[C@@H]2C(=O)C[C@@]2(C)[C@H]1CC[C@]2(O)C(=O)CO [PREDNISONE] | Papp at 8 h (in vitro [16]): 3.09 ×10⁻⁶ cm/s
29 | < 5 | Stable | Stable | < 5 | < 5 | 6.1 | COc1ccc(CCNS(=O)(=O)c2ccccc2C)cc1OC | 
30 |  |  |  |  |  |  | O=C(O)Cc1ccccc1Nc1c(Cl)cccc1Cl [DICLOFENAC] | Drug absorption [15]: 99.28%
31 | 90.7 | Unstable | Stable | 22.7 | 25.5 | 90.4 | COc1ccc(/C=N/N(C)S(=O)(=O)c2cc3c(cc2C)OCO3)cc1OC | IC50 [7]: 0.7 µM; EC50 (Trachea [18]): 8.13 µM; Emax [8]: 93%; Emax (Homo sapiens [9]): 100%; EC50 (Trachea [19]): 3.16 µM; inhibition in vivo at 6.25 µmol/kg (Mus musculus [10]): 48.7%; inhibition in vivo at 6.25 µmol/kg (Mus musculus [11]): 99%; Drug absorption [15]: 99.3%; IC50 [12]: 0.5 µM; inhibition in vivo at 25 µmol/kg (Mus musculus [13]): 85.9%; EC50 (Trachea [20]): 6.46 µM; EC50 (Trachea [21]): 8.32 µM; inhibition in vivo at 25 µmol/kg (Mus musculus [14]): 97%; Papp at 8 h (in vitro [16]): 13.1 ×10⁻⁶ cm/s
